From ChEMBL document CHEMBL1156576, “Determination of log D via automated microfluidic liquid-liquid extraction” (J Med Chem, 2008) come the findings set out here.

The nature of one series: physchem. The note with it: buffer, pH 7.4.
As to `CC(C)N(CC[C@](C(N)=O)(c1ccccc1)c1ccccn1)C(C)C` [(S)-DISOPYRAMIDE], the logD was 0.39.

Consider `CC(=O)Nc1ccc(O)cc1` [ACETAMINOPHEN], for which the logD came out at 0.27.

The compound `NS(=O)(=O)c1cc(C2(O)NC(=O)c3ccccc32)ccc1Cl` (stereo not drawn) [CHLORTHALIDONE] had a logD of 0.85.

In turn, `CN/C(=N/CCSCc1nc[nH]c1C)NC#N` [CIMETIDINE] gave a logD of 0.29.

In turn, `CC(=O)OCC(=O)[C@@]1(O)CC[C@H]2[C@@H]3CCC4=CC(=O)CC[C@]4(C)[C@H]3[C@@H](O)C[C@@]21C` [HYDROCORTISONE ACETATE] yielded a log distribution coefficient (logD) of 2.11.

For the compound `CCN(CC)CCNC(=O)c1ccc(N)cc1` [PROCAINAMIDE], the logD was -0.94.

Consider `CNC(=C[N+](=O)[O-])NCCSCc1ccc(CN(C)C)o1` [RANITIDINE], for which the logD is -0.99.

For `CCN(CC)CCNC(=O)c1cc(S(C)(=O)=O)ccc1OC` [TIAPRIDE], the logD is -0.9.

Assay in a further series: not given
The note with it: buffer, pH 7.4.
Compound `CN(C)CCC(c1ccc(Cl)cc1)c1ccccn1` (stereo not drawn) [CHLORPHENIRAMINE] yielded a logD of 0.26.

Assay in a further series: not given
The note with it: buffer, pH 7.4. The source holds these as a separate data set.
In turn, `CN(C)CCC(c1ccc(Cl)cc1)c1ccccn1` (stereo not drawn) [CHLORPHENIRAMINE] yielded a log distribution coefficient (logD) of 0.28.

Another series can be described thus: physchem. The note with it: buffer, pH 7.4. The source holds these as a separate data set.
Consider `CC(C)N(CC[C@](C(N)=O)(c1ccccc1)c1ccccn1)C(C)C` [(S)-DISOPYRAMIDE], for which the pH-dependent lipophilicity (logD) turned out to be 0.52.

`CC(=O)Nc1ccc(O)cc1` [ACETAMINOPHEN]: the logD is 0.33.

In turn, `NS(=O)(=O)c1cc(C2(O)NC(=O)c3ccccc32)ccc1Cl` (stereo not drawn) [CHLORTHALIDONE] showed a logD of 0.94.

`CN/C(=N/CCSCc1nc[nH]c1C)NC#N` [CIMETIDINE] showed a pH-dependent lipophilicity (logD) of 0.34.

On to `CC(=O)OCC(=O)[C@@]1(O)CC[C@H]2[C@@H]3CCC4=CC(=O)CC[C@]4(C)[C@H]3[C@@H](O)C[C@@]21C` [HYDROCORTISONE ACETATE], for which the logD came to 2.21.

`CCN(CC)CCNC(=O)c1ccc(N)cc1` [PROCAINAMIDE] displayed a logD of -0.89.

Regarding `CNC(=C[N+](=O)[O-])NCCSCc1ccc(CN(C)C)o1` [RANITIDINE], the pH-dependent lipophilicity (logD) is -0.91.

As for `CCN(CC)CCNC(=O)c1cc(S(C)(=O)=O)ccc1OC` [TIAPRIDE], the log distribution coefficient (logD) was -0.85.

In general, logD refers to lipophilicity at a set pH, counting ionised and neutral species. High values mean a more lipophilic compound, low ones a more hydrophilic compound.
